Tested on: Nmrk2 promoter
Assay: Nmrk2 promoter luciferase reporter assay in NRC
Format: cell-based, rat
Conditions: for activity of the Nmrk2 promoter (p3009-Luc): NRC co-transfected with PPARα and RXR expression vectors; for Nmrk2 promoter induction by AICAR: NRC, p3009-Luc, antagonist added 30 minutes before AICAR for 24 h
Experimental: Isolation and Treatments of Neonatal Rat Cardiomyocytes (NRC) NRC were isolated as described previously (Diguet et al., 2011). 1-day-old rat pups were killed by decapitation and the cardiac ventricles were harvested and minced into 1 to 2-mm wide cubes with scissors. After washing with Tyrode solution, heart fragments were subjected up to 10 rounds of digestion with 0.05 mg/ml of Liberase Blendzyme 4 (Roche Applied Science) in 10 ml oxygenated Tyrode solution under agitation at 37° C. for 10 minutes. The supernatant of the first digestion was discarded and the following digestions were centrifuged and the cell pellet dissociated in 2 ml of DMEM, 10% FCS. The different fractions were pooled and centrifuged on a discontinuous Percoll gradient (bottom 58.5%. top 40.5%. 30 min. 3000 rpm) to enrich in cardiomyocytes at the interface between the 2 Percoll solutions. Non cardiac cells containing mainly fibroblasts were at the top of the tubes. Neonatal cardiomyocytes were seeded at a density 5×10^5 cells/well in 6-well plates coated with 10 μg/ml of laminin (BD Biosciences) in DMEM without pyruvate, with glucose 4.5 g/l, 10% horse serum, 5% FCS and cultured at 37° C. in 1% CO, atmosphere. To assay the impact on NAD^+ and Nmrk2 expression, Azaserin and FK866 drugs were added in the culture medium at day 5 and renewed everyday when the treatment was prolonged over several days. The same was done for NAD^+, NR and AICAR (5-aminoimidazole-4-carboxamide-1-β-D-ribofuranoside). AICAR was administrated for 24 h only. Doses are indicated in the legends. For treatment of transfected cells (see next section), AICAR, FK866 and PPAR agonists and antagonist were administrated 1 day after transfection. PPAR agonists: GW7647 for PPARα, GW501516 for PPARβ/δ and GW1929 for PPARγ; PPAR antagonists: GW6471 PPARα, GSK3787 for PPARβ/δ and GW9662 for PPARγ were ordered from SIGMA ALDRICH CHIMIE, Saint Quentin Fallavier, France.
The transcription initiation site of mouse Nmrk2 promoter was determined by 5′RACE and was conform to the reported site in the Genebank (NM_027120.2). The promoter of the mouse Nmrk2 gene was cloned from C57B16/N genomic DNA by PCR, and inserted into a pGL4.10[luc2] luciferase reporter plasmid (Promega prod no E6651). Subsequent deletions were performed by enzymatic digestion or primer mediated subcloning of the original fragment. 2.5×10^5 cardiomyocytes in 12-well plates were co-transfected at day 2 of culture with 1 μg of Nmrk2 pGL4.10[luc2] constructs and 100 ng of pGL4.73[hRluc/SV40] Vector (Promega prod no E6911) as an internal control of transfection efficiency using Lipofectamine 2000 (Lifetechnology) as indicated by the supplier. In the case of AICAR treatment, Luciferase activity was analyzed 48 h later with the Dual-Luciferase Assay System (Promega).
The pcDNA3 vectors harboring dominant negative AMPK, PPARα, PPARβ and PPARγ as well as RXR genes were kindly provided by Pr. Michel Raymondjean (El Hadri et al. (2015). AMPK Signaling Involvement for the Repression of the IL-1beta-Induced Group IIA Secretory Phospholipase A2 Expression in VSMCs. Journal 10, e0132498; Ravaux et al. (2007). Inhibition of interleukin-1 beta-induced group 11A secretory phospholipase A2 expression by peroxisome proliferator-activated receptors (PPARs) in rat vascular smooth muscle cells: cooperation between PPARbeta and the proto-oncogene BCL-6. Journal 27, 8374-8387; Woods et al. (2000). Characterization of the role of AMP-activated protein kinase in the regulation of glucose-activated gene expression using constitutively active and dominant negative forms of the kinase. Journal 20, 6704-6711). These vectors were cotransfected at a dose of 100 ng/well in 24-well plates with 500 ng of Nmrk2 luciferase constructs.

activity of the Nmrk2 promoter (p3009-Luc) (antagonist 10 μM)	activity of the Nmrk2 promoter (p3009-Luc) (agonist 0.6 μM)	SMILES	Nmrk2 promoter induction by AICAR
repressed	–	CCC(=O)NC[C@H](Cc1ccc(OCCc2nc(-c3ccccc3)oc2C)cc1)N/C(C)=C\C(=O)c1ccc(C(F)(F)F)cc1 [G6471]	blunted
–	increased	CC(C)(Sc1ccc(CCN(CCCCC2CCCCC2)C(=O)NC2CCCCC2)cc1)C(=O)O [GW7647]	–
–	–	O=C(NCCS(=O)(=O)c1ccc(C(F)(F)F)cn1)c1ccc(Cl)cc1 [GSK3787]	Neither the PPARβ antagonist GSK3787 nor the PPARγ antagonist G9662 had any effect
–	–	O=C(Nc1ccccc1)c1cc([N+](=O)[O-])ccc1Cl [G9662]	Neither the PPARβ antagonist GSK3787 nor the PPARγ antagonist G9662 had any effect
